From PubChem BioAssay (NCI)
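Results reflect a 48-hour exposure of cells in 96-well plates to compound at five concentrations. TGI: total growth inhibition.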

Legend:
Assay in all cases: NCI tumour cell line growth inhibition, 48 h
SN12K1 renal = tested on: SN12K1 renal
OVCAR-3 ovarian = tested on: OVCAR-3 ovarian
NCI-H226 lung = tested on: NCI-H226 lung
A498 renal = tested on: A498 renal
KM12 colon = tested on: KM12 colon
RPMI-8226 leukemia = tested on: RPMI-8226 leukemia
SNB-19 CNS = tested on: SNB-19 CNS
NCI/ADR-RES ovarian = tested on: NCI/ADR-RES ovarian
EKVX NSCLC = tested on: EKVX NSCLC
SK-MEL-2 melanoma = tested on: SK-MEL-2 melanoma
SK-MEL-28 melanoma = tested on: SK-MEL-28 melanoma
LOX IMVI melanoma = tested on: LOX IMVI melanoma
M19-MEL melanoma = tested on: M19-MEL melanoma
MALME-3M melanoma = tested on: MALME-3M melanoma
HOP-62 NSCLC = tested on: HOP-62 NSCLC
RXF 393 renal = tested on: RXF 393 renal
HCC-2998 colon = tested on: HCC-2998 colon
A549 NSCLC = tested on: A549 NSCLC
SF-539 CNS = tested on: SF-539 CNS
P388 leukemia = tested on: P388 leukemia
HOP-92 NSCLC = tested on: HOP-92 NSCLC
DLD-1 colon = tested on: DLD-1 colon
KM20L2 colon = tested on: KM20L2 colon
HCT-116 colon = tested on: HCT-116 colon
P388/ADR leukemia = tested on: P388/ADR leukemia
SK-MEL-5 melanoma = tested on: SK-MEL-5 melanoma
HT29 colon = tested on: HT29 colon
OVCAR-5 ovarian = tested on: OVCAR-5 ovarian
NCI-H23 lung = tested on: NCI-H23 lung
NCI-H460 lung = tested on: NCI-H460 lung
XF 498 CNS = tested on: XF 498 CNS
CCRF-CEM leukemia = tested on: CCRF-CEM leukemia
SW-620 colon = tested on: SW-620 colon
OVCAR-4 ovarian = tested on: OVCAR-4 ovarian
UACC-62 melanoma = tested on: UACC-62 melanoma
SK-OV-3 ovarian = tested on: SK-OV-3 ovarian
UACC-257 melanoma = tested on: UACC-257 melanoma
NCI-H522 lung = tested on: NCI-H522 lung
SNB-78 CNS = tested on: SNB-78 CNS
COLO 205 colon = tested on: COLO 205 colon
HOP-18 NSCLC = tested on: HOP-18 NSCLC
UO-31 renal = tested on: UO-31 renal
HCT-15 colon = tested on: HCT-15 colon
SF-295 CNS = tested on: SF-295 CNS
OVCAR-8 ovarian = tested on: OVCAR-8 ovarian
MOLT-4 leukemia = tested on: MOLT-4 leukemia
SF-268 CNS = tested on: SF-268 CNS
IGROV1 ovarian = tested on: IGROV1 ovarian
U251 CNS = tested on: U251 CNS
HL-60(TB) leukemia = tested on: HL-60(TB) leukemia
DMS 273 small cell lung = tested on: DMS 273 small cell lung
CAKI-1 renal = tested on: CAKI-1 renal
SNB-75 CNS = tested on: SNB-75 CNS
MCF7 breast = tested on: MCF7 breast
SN12C renal = tested on: SN12C renal
K-562 leukemia = tested on: K-562 leukemia
DMS 114 small cell lung = tested on: DMS 114 small cell lung
ACHN renal = tested on: ACHN renal
SR leukemia = tested on: SR leukemia
M14 melanoma = tested on: M14 melanoma
RXF-631 renal = tested on: RXF-631 renal
TK-10 renal = tested on: TK-10 renal
LXFL 529 NSCLC = tested on: LXFL 529 NSCLC
786-0 renal = tested on: 786-0 renal

Measured: TGI

COc1ccc(Cc2nn(C3OC(COC(C)=O)C(OC(C)=O)C(OC(C)=O)C3OC(C)=O)c(=S)n(-c3ccc(OC)cc3)c2=O)cc1 (stereo not drawn)
> 92.2 µM: SNB-75 CNS
> 100 µM: SN12K1 renal | OVCAR-3 ovarian | NCI-H226 lung | A498 renal | KM12 colon | RPMI-8226 leukemia | SNB-19 CNS | NCI/ADR-RES ovarian | EKVX NSCLC | SK-MEL-2 melanoma | SK-MEL-28 melanoma | LOX IMVI melanoma | M19-MEL melanoma | MALME-3M melanoma | HOP-62 NSCLC | RXF 393 renal | HCC-2998 colon | A549 NSCLC | SF-539 CNS | P388 leukemia | HOP-92 NSCLC | DLD-1 colon | KM20L2 colon | HCT-116 colon | P388/ADR leukemia | SK-MEL-5 melanoma | HT29 colon | OVCAR-5 ovarian | NCI-H23 lung | NCI-H460 lung | XF 498 CNS | CCRF-CEM leukemia | SW-620 colon | OVCAR-4 ovarian | UACC-62 melanoma | SK-OV-3 ovarian | UACC-257 melanoma | NCI-H522 lung | SNB-78 CNS | COLO 205 colon | HOP-18 NSCLC | UO-31 renal | HCT-15 colon | SF-295 CNS | OVCAR-8 ovarian | MOLT-4 leukemia | SF-268 CNS | IGROV1 ovarian | U251 CNS | HL-60(TB) leukemia | DMS 273 small cell lung | CAKI-1 renal | MCF7 breast | SN12C renal | K-562 leukemia

CN(c1nc(=[N+](C)C)ss1)C1CCCCC1
> 100 µM: DMS 114 small cell lung | NCI-H226 lung | A498 renal | ACHN renal | KM12 colon | RPMI-8226 leukemia | SNB-19 CNS | SR leukemia | EKVX NSCLC | SK-MEL-2 melanoma | SK-MEL-28 melanoma | LOX IMVI melanoma | M19-MEL melanoma | MALME-3M melanoma | HOP-62 NSCLC | RXF 393 renal | HCC-2998 colon | A549 NSCLC | M14 melanoma | SF-539 CNS | RXF-631 renal | HOP-92 NSCLC | DLD-1 colon | KM20L2 colon | HCT-116 colon | SK-MEL-5 melanoma | HT29 colon | OVCAR-5 ovarian | NCI-H23 lung | TK-10 renal | NCI-H460 lung | XF 498 CNS | CCRF-CEM leukemia | SW-620 colon | OVCAR-4 ovarian | UACC-62 melanoma | SK-OV-3 ovarian | UACC-257 melanoma | NCI-H522 lung | LXFL 529 NSCLC | SNB-78 CNS | HOP-18 NSCLC | UO-31 renal | HCT-15 colon | SF-295 CNS | OVCAR-8 ovarian | MOLT-4 leukemia | SF-268 CNS | IGROV1 ovarian | 786-0 renal | U251 CNS | HL-60(TB) leukemia | DMS 273 small cell lung | CAKI-1 renal | SNB-75 CNS | SN12C renal | K-562 leukemia
